From a melting point compilation (Tetko et al.; mined from patent text by program, amines drawn as free bases though some values may be those of a salt)

| SMILES | melting point [°C] |
| --- | --- |
| Nc1c(Cl)cc(C(O)CNCCCCCCOCCCc2ccc(C(=O)O)cc2)cc1Cl (centres undefined) | 190 to 191 |
| Cc1c(O)c(C(C)(C)C)cc2c1CCC1C2CCC2(C)C(=O)CCC12 (centres undefined) | 190 to 192 |
| CC(=O)C1=Cc2ccccc2NN=C1 | 66 to 68 |
| Clc1cc2nc(-c3ccncc3)[nH]c2cc1Cl | 297 |
| CC(=O)Nc1ccc(Br)c(C)n1 | 156 to 157 |
| COc1cc(OCc2ccccn2)ccc1/C=C/C(=O)CC(=O)/C=C/c1ccc2ccn(C)c2c1 | 191 to 192 |
| O=[N+]([O-])c1ccc(Oc2c(Cl)cc(C(F)(F)F)cc2Cl)cc1S(=O)(=O)c1cc[nH]n1 | 159 |
| CO[C@]1(c2cc(F)cc(S(=O)(=O)c3ccc(/C(C)=N/O)cc3)c2)CCO[C@@H](C)C1 | 149 |
| O=S(=O)(c1ccccc1)c1c[nH]c2c(C3CCNCC3)cccc12 | 186 to 190 |
| O=c1c(Oc2ccccc2)nc2ccccc2n1-c1ccc(Cl)cc1 | 239 to 241 |
| CC(C)=NNc1nc(Cl)c(-c2c(F)cc(F)cc2F)c(NC(C)C(F)(F)F)n1 (centres undefined) | 157 to 159 |
| CC1CC1n1cc(C(=O)O)c(=O)c2cc(F)c(N3CCNCC3)cc21 (centres undefined) | 110 to 120 |
| COc1ccc(C(C#Cc2ccccc2)Cc2nc(C)co2)cc1OC1CCCC1 (racemic) | 56 to 57 |
| Cc1cc(=O)n(C)c2ccc(OCCCN3CCC(NC(=O)c4ccccc4)CC3)cc12 | 188 to 190 |
| COc1cc(C(=O)CBr)ccc1OC(C)=O | 82 |
| CCCCCc1c(C(C)C)nc(C(C)C)c(CO)c1-c1ccc(C)cc1 | 92 to 94 |
| CCCCCCCCCCCCCCc1ccc(CCCCCC)c(OCC(O)CO)c1 (centres undefined) | 46 to 47 |
| CCCCn1c(=O)cnn(-c2ccc(N3CCN(c4ccc(OC)cc4)CC3)cc2)c1=O | 181 |
| CC(C)N(C(=S)ON1C(=O)c2ccccc2C1=O)C(C)C | 73 to 75 |
| NC(=O)c1nc(-c2ccccn2)nc2c1[nH]c(=O)n2-c1ccccc1 | 347 to 349 |
| COC(=O)C1CCC2C3CCC4CC(C)(O)CCC4(C)C3C(=O)CC12C (centres undefined) | 150 |
| O=C1C=C(c2cccc(Cl)c2)CN(Cc2ccccc2)C1 | 143 to 145 |
| CCOCCN(c1cccc2cc(C(N)=S)[nH]c12)S(=O)(=O)c1cccs1 | 182 |
| Nc1ccc2c(c1)C(=O)C1(CC1)S2 | 148 to 150 |
| COc1ccc(NCCCOc2ccc3ccc(OCCCNc4ccc(OC)cc4)cc3c2)cc1 | 127 |

| SMILES | melting point [°C] |
| --- | --- |
| O=S(=O)(c1ccc2nccnc2c1)c1cccc2cnccc12 | 187 to 189 |
| CCCCCCCCCCCCc1ccc2cccnc2c1O | 88.5 to 90 |
| CCOC(=O)c1cccc(Cc2c[nH]cn2)c1O | 133 |
| CCOC(Cc1cnc2ccc(OCc3ccc([N+](=O)[O-])cc3)cc2c1)C(=O)O (centres undefined) | 169 to 174 |
| COc1ccc(-c2nnc3c4ccccc4c(OCCCCO)nn23)cc1 | 180 to 182 |
| COC(=O)CC(CNC(C)=O)c1cccc2ccc(OC)cc12 (centres undefined) | 94 to 95 |
| COc1cc(C(C)C)c(OC(C#N)=CNc2ccccc2)cc1I | 170 |
| CCCc1c(C(=O)C(C)C)c2ccc(C(=O)OCc3ccccc3)cc2n1C(=O)c1ccccc1Cl | 67.5 to 70 |
| O=C(C1=CCCCC1)c1cc(-c2ccccc2)no1 | 70 to 71 |
| CCOc1ccc(C(=O)C#N)cc1 | 43 |
| CN1CCCC1=NC(=O)Nc1ccc(C(F)(F)F)cc1 | 128 to 131 |
| CC(COc1ccc(CC2SC(=O)NC2=O)cc1)NCC(O)c1cccc(C(F)(F)F)c1 (centres undefined) | 100 to 105 |
| O=c1[nH]c2cc(Br)cc(Br)c2c(=O)n1Cc1ccccc1Cl | 133 to 136 |
| COc1cc2c(cc1N1CCN(CC3Cc4ccccc4C3)CC1)OC=CCO2 | 120 to 122 |
| [N-]=[N+]=NC1CC(n2cc(C=CBr)c(=O)[nH]c2=O)OC1CCl (centres undefined) | 124 to 125 |
| CC(CCCC(C)(C)Cl)C1CC=C2C3=C(CCC21C)C1(C)CCC(O)C(C)(C)C1CC3 (centres undefined) | 131 to 133 |
| Nc1ccsc1[N+](=O)[O-] | 159 |
| CC#CCOc1ccc(S(=O)(=O)N2Cc3ccccc3N(C(=O)c3ccco3)CC2C(=O)OC)cc1 (centres undefined) | 119 to 120 |
| c1ccc(OCCSCc2nnc(-c3ccc(OCCCN4CCOCC4)cc3)o2)cc1 | 65 |
| CN(C)Cc1ccc2cc(NC(=O)c3ccc(-c4ccc(F)cc4)cc3)ccc2n1 | 205 to 208 |
| COc1cccc(C(=C/C=C/C(=O)Oc2ccc([N+](=O)[O-])cc2)c2cccc(OC)c2)c1 | 95 to 97 |
| Cn1ncc2c(c1=O)SCCNC2Cc1ccccc1 (centres undefined) | 108 to 109 |
| CCCc1nn(-c2ccc(C(F)(F)F)cn2)cc1CCCOc1cccc(CC(=O)O)c1 | 106 to 107 |
| CC1c2ccccc2N(CCN2CC=C(c3c[nH]c4cc(F)ccc34)CC2)S(=O)(=O)N1C (centres undefined) | 105 to 108 |
| c1ccc(Sc2c[nH]c3ncccc23)cc1 | 188 to 189 |

| SMILES | melting point [°C] |
| --- | --- |
| CN1C(=O)CC[C@]2(C)c3ccc(-c4ccc(NC(=O)C(C)(C)C)cc4)cc3CC[C@@H]12 | > 265 |
| CCOC(=O)c1c2ccc(Cl)cc2c(-c2ccccc2)n1CC(=O)N(CC)CC | 118 to 120 |
| Cc1ccc(C=O)n1Cc1ccc(Cl)cc1Cl | 86 to 87 |
| COc1cc(N)c([N+](=O)[O-])cc1NCCO | 165 |
| O=C(Oc1cccc2c(-c3ccccc3)c3cccc(OC(=O)c4ccccc4)c3c(OC(=O)c3ccccc3)c12)c1ccccc1 | 255 |
| CC(Cc1c[nH]c2ccccc12)(NC(=O)OC1C2CC3CC(C2)CC1C3)C(=O)NC1(C(=O)O)CCCCC1 (centres undefined) | 203 to 208 |
| CCCc1c(OCCCOc2ccc(C(C)=O)c(OCC(=O)O)c2CCC)ccc(C(C)=O)c1O | 151 to 155 |
| Clc1ccc(C2=CCN(CCCCn3cncn3)CC2)cc1 | 101 to 103 |
| CS(=O)(=O)N(Cc1cccnc1)c1ccc(F)cc1 | 112 to 113 |
| Nc1cccc2c1Cc1cccc(N)c1C2 | 179 |
| Cc1nc(NC(=O)Cc2ccccc2)sc1C(=O)NCc1ccccc1 | 63 to 65 |
| CC(C)N1C(=O)CO[C@@H]2c3cc(F)ccc3OCC[C@H]21 (relative stereo) | 127 to 143 |
| CCCCC(O)(Cn1ccnc1)c1ccc(Cl)cc1Cl (centres undefined) | 78 to 80 |
| COc1nc(Cl)nc2c1ncn2C1CC(O)C(CO)O1 (centres undefined) | 141 to 142 |
| CN1C(=O)C(NC(=O)Nc2cccc(F)c2)N=C(c2ccccc2)c2ccccc21 (centres undefined) | 252 to 254 |
| Cc1cccc(C2(O)CCN(C)CC2)c1 | 86 to 90 |
| COc1ccc(N2CCN(c3ccc(-n4cnn(C)c4=O)cc3)CC2)cc1 | 246 |
| CCOc1cc2c(Cl)ccnc2nc1C | 164 |
| COc1cc(Nc2c(C#N)cnc3cc(-c4ccc(CN(CCO)CCO)o4)ccc23)c(Cl)cc1Cl | 155 to 160 |
| COC(=O)C1=C2CCC(c3ccccc3)CN2CCC1=O (centres undefined) | 150 to 151 |
| CNc1cnc2ccc(Cl)cc2c1-c1ccccc1 | 139 to 140 |
| CC(C)(CNc1ccnc2cc(Cl)ccc12)NCc1ccc(C(F)(F)F)cc1 | 145 to 147 |
| CC(C)c1ccc(-c2ccc(F)cc2)n1C(C)CC1CC(O)CC(=O)O1 (centres undefined) | 167 to 169 |
| Nc1ncnc2c1c(-c1ccc(OCc3ccccc3)cc1)cn2-c1ccc(OCCn2ccnc2)cc1 | 105 to 107 |
| CC(=Cc1ccccc1)c1ccc2c(c1)C(C)(C)CCS2 | 81 to 83 |

| SMILES | melting point [°C] |
| --- | --- |
| COc1cc(COc2nn(-c3ccccc3)cc2/C=C/c2coc(C(C)C)n2)ccc1OCc1nc(-c2ccc(CC(=O)O)cc2)oc1C | 116 to 118 |
| COc1ccc(C2(C)Cc3cc(OCc4ccccc4)c(Cl)c(Cl)c3C2=O)cc1 (centres undefined) | 115 to 119 |
| CC1(C)CCC(C)(C)c2cc(CCCn3cccn3)c(/C=C/c3ccc(C(=O)O)cc3)cc21 | 182 |
| Cc1nc2ccc(NS(=O)(=O)c3cccc(Cl)c3C)cc2nc1C | 225 to 226 |
| CC(C)(C)[S@](=O)N1CCC[C@@H]1c1ccc(Br)cc1 | 100 to 112 |
| CON=C1c2ccccc2-c2c(N3CCNCC3)nc3ccccc3c21 | 149 to 150 |
| CCOC(=O)COc1ccc(NS(C)(=O)=O)cc1OC | 118 to 119 |
| N#Cc1ccc(OCCO)c(C(N)=O)c1 | 144 to 146 |
| Nc1c(C(F)(F)F)cc(Cl)c2[nH]c(=O)c(=O)[nH]c12 | > 360 |
| CN(Cc1ccc(NC(=O)C2=Cc3cc(-c4ccncc4)ccc3OCC2)cc1)C1CCOCC1 | 186 to 187 |
| O=c1[nH]c2cc(Cl)ccc2c(=O)c2sccc12 | > 280 |
| CCSc1cc(C)nc(SCC)c1NC(=O)CCCCCCSc1nc2cccc(C(F)(F)F)c2o1 | 127 to 128 |
| O=c1c2c(Cc3ccccc3[N+](=O)[O-])n[nH]c2c2cccnc2n1-c1cccc(C(F)(F)F)c1 | 282 to 284 |
| O=C(NCCN1CCC2(CC1)C(=O)NCN2c1ccccc1)c1ccco1 | 196 |
| CC(C)n1nc(-c2sc(NC(=O)C3CC3)nc2-c2ccccc2)ccc1=O | 226 to 227 |
| CCOC(=O)C1(C(=O)Nc2ccc(Br)cc2C)CCCC1 | 64 to 67 |
| CC(C)(C)c1cc(CCc2ccccc2NC(=O)NC2CCCC2)cc(C(C)(C)C)c1O | 186 to 187 |
| N#Cc1c(N2CCCN(c3ccccc3)CC2)cc[nH]c1=S | 128 to 132 |
| NS(=O)(=O)c1ccc(NC(=O)Nc2ccc3c(c2)Cc2ccccc2-3)cc1 | 280 to 285 |
| CCOC(=O)c1cc2c3ccccc3n(Cc3ccccc3)c2nc1N1CCOCC1 | 151 to 152 |
| O=C(O)CN(CC(=O)O)CC(CO)C(=O)O (centres undefined) | 195 |
| COc1ccc(-c2nc(S(=O)c3ccc(C)cc3)n(C3CCCCO3)c2-c2ccc(OC)cc2)cc1 (centres undefined) | 162 to 164 |
| Cc1ccc(-n2nc3c(c2O)-c2ccccc2CC3)nc1 | 156 to 157 |
| Cc1c(NC(=O)c2ccc(OC[C@@H]3CCCO3)cc2)ccc2c1cc(CN1CCC(C)(O)CC1)n2C | 210 |
